Measurements: ChEMBL document CHEMBL3714742, “Pyrimido (4,5-b) indole derivatives” (2003)
Active and inactive are the calls of the source. The rule behind the calls is not given here.

Tests used:
[1] = molecular target: T1, Dual specificity mitogen-activated protein kinase kinase 7 (Homo sapiens, UniProt O14733); experiment: Inhibition of GST-tagged human MKK7 expressed in Escherichia coli (BL21(DE3) pLysS) co-expressing human MEKK catalytic domain using biotinylated and GST-tagged rat GST-KN-SAPKalpha substrate incubated for 1 hr by time-resolved fluorescence based assay
T1 sequence (O14733 whole entry): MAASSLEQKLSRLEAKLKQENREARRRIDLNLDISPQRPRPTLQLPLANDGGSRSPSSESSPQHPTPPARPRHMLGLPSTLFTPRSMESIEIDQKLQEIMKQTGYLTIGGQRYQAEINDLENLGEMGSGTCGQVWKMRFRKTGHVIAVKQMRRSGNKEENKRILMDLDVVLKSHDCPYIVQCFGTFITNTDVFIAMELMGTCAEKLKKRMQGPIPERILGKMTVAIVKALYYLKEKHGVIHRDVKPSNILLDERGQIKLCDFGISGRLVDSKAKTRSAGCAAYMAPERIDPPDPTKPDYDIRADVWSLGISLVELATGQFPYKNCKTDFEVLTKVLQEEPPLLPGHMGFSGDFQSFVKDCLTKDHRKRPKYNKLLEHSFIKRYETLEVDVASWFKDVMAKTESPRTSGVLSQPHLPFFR

Mus musculus [2] = experiment: Inhibition of anti-CD3 antibody-induced IL2 production in Balb/c mouse dosed intravenously 5 mins before anti-CD3 antibody injection and measured 2 hrs post-challenge by ELISA; type: functional, organism-based
Mus musculus [3] = experiment: Inhibition of anti-CD3 antibody-induced IL4 production in Balb/c mouse dosed intravenously 5 mins before anti-CD3 antibody injection and measured 2 hrs post-challenge by ELISA; type: functional, organism-based
Mus musculus [4] = experiment: Inhibition of anti-CD3 antibody-induced IFNgamma production in Balb/c mouse dosed intravenously 5 mins before anti-CD3 antibody injection and measured 2 hrs post-challenge by ELISA; type: functional, organism-based

IC50 [1] | SMILES | inhibition (Mus musculus [2]) | inhibition (Mus musculus [3]) | inhibition (Mus musculus [4])
< 1000 nM | NCCCNc1ncnc2[nH]c3ccc(C(N)=O)cc3c12 | Active | Active | Active
1000 nM | O=C(O)CCCCCN1CCN(c2ncnc3[nH]c4ccc(O)cc4c23)CC1 | Active | Active | Active
< 1000 nM | COc1ccc2[nH]c3nc(N)nc(N4CCOCC4)c3c2c1 | Active | Active | Active
< 1000 nM | CCC1CCCCN1c1ncnc2[nH]c3ccc(C(N)=O)cc3c12 (centres undefined) | Active | Active | Active
< 1000 nM | CC1CCN(c2ncnc3[nH]c4ccc(O)cc4c23)CC1 | Active | Active | Active
< 1000 nM | Cc1nc(N2CCCC(CO)C2)c2c(n1)[nH]c1ccc(O)cc12 (centres undefined) | Active | Active | Active
< 1000 nM | NC1CCN(c2ncnc3[nH]c4ccc(O)cc4c23)CC1 | Active | Active | Active
< 1000 nM | OCCCNc1ncnc2[nH]c3ccc(O)cc3c12 | Active | Active | Active
< 1000 nM | Oc1ccc2[nH]c3ncnc(N4CCCCCC4)c3c2c1 | Active | Active | Active
< 1000 nM | NCCNc1ncnc2[nH]c3ccc(O)cc3c12 | Active | Active | Active
< 1000 nM | Nc1nc(N2CCCC(O)C2)c2c(n1)[nH]c1ccc(O)cc12 (centres undefined) | Active | Active | Active
< 1000 nM | CC(C)(C)OC(=O)NC1CCN(c2ncnc3[nH]c4ccc(O)cc4c23)CC1 | Active | Active | Active
< 1000 nM | Oc1ccc2[nH]c3ncnc(N4CCC(O)(Cc5ccccc5)CC4)c3c2c1 | Active | Active | Active
< 1000 nM | Oc1ccc2[nH]c3ncnc(NC4CCCCC4)c3c2c1 | Active | Active | Active
< 1000 nM | Nc1nc(NC2CCCCCC2)c2c(n1)[nH]c1ccc(O)cc12 | Active | Active | Active
< 1000 nM | Cc1ccc2[nH]c3nc(N)nc(N4CCCCC4)c3c2c1 | Active | Active | Active
< 1000 nM | CN(c1ncnc2[nH]c3ccc(O)cc3c12)C1CCCCC1 | Active | Active | Active
< 1000 nM | OCCC1CCN(c2ncnc3[nH]c4ccc(O)cc4c23)CC1 | Active | Active | Active
< 1000 nM | Oc1ccc2[nH]c3ncnc(N4CCC[C@@H](O)C4)c3c2c1 | Active | Active | Active
< 1000 nM | OCCN(CCO)c1ncnc2[nH]c3ccc(O)cc3c12 | Active | Active | Active
1000 nM | Nc1nc(N2CCNCC2)c2c(n1)[nH]c1ccc(O)cc12 | Active | Active | Active
1000 nM | Cc1nc(N2CCCCC2CO)c2c(n1)[nH]c1ccc(O)cc12 (centres undefined) | Active | Active | Active
< 1000 nM | NC(=O)c1ccc2[nH]c3ncnc(N4CCC(O)CC4)c3c2c1 | Active | Active | Active
1000 nM | CNc1nc(C)nc2[nH]c3ccc(O)cc3c12 | Active | Active | Active
1000 nM | CCN(CC)c1nc(C)nc2[nH]c3ccc(O)cc3c12 | Active | Active | Active
< 1000 nM | Nc1nc(N2CCCCC2)c2c(n1)[nH]c1ccc(O)cc12 | Active | Active | Active

IC50 [1] | SMILES | inhibition (Mus musculus [2]) | inhibition (Mus musculus [3]) | inhibition (Mus musculus [4])
< 1000 nM | Nc1nc(NCc2ccccc2)c2c(n1)[nH]c1ccc(O)cc12 | Active | Active | Active
< 1000 nM | CC1CCN(c2ncnc3[nH]c4ccc(C(N)=O)cc4c23)CC1 | Active | Active | Active
< 1000 nM | CN(CCO)c1ncnc2[nH]c3ccc(O)cc3c12 | Active | Active | Active
< 1000 nM | C[C@H](CO)Nc1ncnc2[nH]c3ccc(O)cc3c12 | Active | Active | Active
< 1000 nM | Cc1nc(N2CCCCCC2)c2c(n1)[nH]c1ccc(O)cc12 | Active | Active | Active
< 1000 nM | Cc1nc(N2CCC(O)CC2)c2c(n1)[nH]c1ccc(O)cc12 | Active | Active | Active
1000 nM | Nc1nc(N2CCCCC2)c2c(n1)[nH]c1ccc(Cl)cc12 | Active | Active | Active
< 1000 nM | Nc1nc(NC2CCCC2)c2c(n1)[nH]c1ccc(O)cc12 | Active | Active | Active
< 1000 nM | CCC1CCCCN1c1ncnc2[nH]c3ccc(O)cc3c12 (centres undefined) | Active | Active | Active
> 10000 nM | Nc1nc(NCCN2CCCC2)c2c(n1)[nH]c1ccc(O)cc12 | Active | Active | Active
< 1000 nM | NC(=O)c1ccc2[nH]c3ncnc(N4CCCCC4)c3c2c1 | Active | Active | Active
1000 nM | Nc1nc(N2CCC(C(=O)O)CC2)c2c(n1)[nH]c1ccc(O)cc12 | Active | Active | Active
< 1000 nM | CN(C)c1ncnc2[nH]c3ccc(O)cc3c12 | Active | Active | Active
< 1000 nM | Oc1ccc2[nH]c3ncnc(NC4CCCCCC4)c3c2c1 | Active | Active | Active
< 1000 nM | Nc1nc(N2CCC(N3CCCC3)CC2)c2c(n1)[nH]c1ccc(O)cc12 | Active | Active | Active
1000 nM | Nc1nc(N2CCC(Cc3ccccc3)CC2)c2c(n1)[nH]c1ccc(O)cc12 | Active | Active | Active
< 1000 nM | CC1CCN(c2nc(N)nc3[nH]c4ccc(O)cc4c23)CC1 | Active | Active | Active
< 1000 nM | NC(=O)c1ccc2[nH]c3ncnc(N4CCC(C(=O)O)CC4)c3c2c1 | Active | Active | Active
< 1000 nM | CC(O)CNc1ncnc2[nH]c3ccc(O)cc3c12 (centres undefined) | Active | Active | Active
< 1000 nM | NC(=O)C1CCCN(c2ncnc3[nH]c4ccc(O)cc4c23)C1 (centres undefined) | Active | Active | Active
1000 nM | COc1cc2[nH]c3nc(N)nc(N4CCCCC4)c3c2cc1OC | Active | Active | Active
< 1000 nM | Oc1ccc2[nH]c3ncnc(N4CCC(O)CC4)c3c2c1 | Active | Active | Active
< 1000 nM | OCCC1CCCCN1c1ncnc2[nH]c3ccc(O)cc3c12 (centres undefined) | Active | Active | Active
< 1000 nM | Oc1ccc2[nH]c3ncnc(N[C@H]4CC[C@H](O)CC4)c3c2c1 | Active | Active | Active
< 1000 nM | Nc1nc(N2CCCC2)c2c(n1)[nH]c1ccc(O)cc12 | Active | Active | Active
